Source: patent publication US7034110B2, “Method of identifying chemical compounds having selected properties for a particular application” (ArQule, Inc., priority 1994, dated 2006)
Where two headings read alike, the source gives them in different places.

How the values were obtained:
chymotrypsin = chymotrypsin (Bos taurus, UniProt P00766); test: competitive inhibition of chymotrypsin, standard assay using a BTEE substrate; type: biochemical
Method: The set of molecules where X=CH2 was tested as competitive inhibitiors of the enzyme chymotrypsin in a standard assay using a BTEE substrate.

[1] = boiling in 6 N NaOH for 24 hrs; cited from earlier work

Row | SMILES | Ki (chymotrypsin) | also measured
1 | CC(=O)[N-][N+]1(CC(C)O)CCCCC1 (centres unmarked) [R1=Me, R2=Me] |  | Ki (chymotrypsin; competitive inhibition, BTEE substrate, set of molecules where X=CH2): not be an inhibitor
2 | CC(O)C[N+]1([N-]C(=O)c2ccccc2)CCCCC1 (centres unmarked) [R1=Me, R2=Ph] | 130 µM | 
3 | CC(=O)[N-][N+]1(CC(O)c2ccccc2)CCCCC1 (centres unmarked) [R1=Ph, R2=Me] | 200 µM | 
4 | O=C([N-][N+]1(CC(O)c2ccccc2)CCCCC1)c1ccccc1 (centres unmarked) [R1=Ph, R2=Ph] | 500 µM | 
5 | CN(C)C.NC(=O)c1ccccc1 [trimethyl amine benzamide] |  | hydrolytic stability [1]: unchanged
